Assay results from ChEMBL document CHEMBL3397025, “Guanine-based amphiphiles: synthesis, ion transport properties and biological activity” (Bioorg Med Chem, 2015).

Columns and labels:
[1] = Ionophoric activity in large unilamellar vesicles containing 95:5 egg phosphatidylcholine and egg phosphatidylglycerol assessed as fluorescence emission at 25 degC after 10 mins by HPTS assay in presence of Na+; format: ADME
[2] = Ionophoric activity in large unilamellar vesicles containing 95:5 egg phosphatidylcholine and egg phosphatidylglycerol assessed as fluorescence emission at 25 degC after 10 mins by HPTS assay in presence of K+; format: ADME
MCF7 = assay: Cytotoxicity against human MCF7 cells assessed as cell viability after 48 hrs by MTT assay; format: functional, cell-based; settings: MCF7, 48 h
[3] = Cytotoxicity against human SH-SY5Y cells assessed as cell viability after 48 hrs by MTT assay; format: functional, cell-based
DU-145 = assay: Cytotoxicity against human DU145 cells assessed as cell viability after 48 hrs by MTT assay; format: functional, cell-based; settings: DU-145, 48 h
HaCaT = assay: Cytotoxicity against human HaCaT cells assessed as cell viability after 48 hrs by MTT assay; format: functional, cell-based
[4] = Ionophoric activity in large unilamellar vesicles containing 95:5 egg phosphatidylcholine and egg phosphatidylglycerol assessed as fluorescence emission at 25 degC after 10 mins by HPTS assay in presence of Li+; format: ADME
[5] = Ionophoric activity in large unilamellar vesicles containing 95:5 egg phosphatidylcholine and egg phosphatidylglycerol assessed as fluorescence emission at 25 degC after 10 mins by HPTS assay in presence of Rb+; format: ADME
[6] = Ionophoric activity in large unilamellar vesicles containing 95:5 egg phosphatidylcholine and egg phosphatidylglycerol assessed as fluorescence emission at 25 degC after 10 mins by HPTS assay in presence of Cs+; format: ADME
[7] = Ionophoric activity in large unilamellar vesicles containing 95:5 egg phosphatidylcholine and egg phosphatidylglycerol assessed as fluorescence emission at 25 degC after 10 mins by HPTS assay in presence of F-; format: ADME
[8] = Ionophoric activity in large unilamellar vesicles containing 95:5 egg phosphatidylcholine and egg phosphatidylglycerol assessed as fluorescence emission at 25 degC after 10 mins by HPTS assay in presence of Cl-; format: ADME
[9] = Ionophoric activity in large unilamellar vesicles containing 95:5 egg phosphatidylcholine and egg phosphatidylglycerol assessed as fluorescence emission at 25 degC after 10 mins by HPTS assay in presence of Br-; format: ADME
[10] = Ionophoric activity in large unilamellar vesicles containing 95:5 egg phosphatidylcholine and egg phosphatidylglycerol assessed as fluorescence emission at 25 degC after 10 mins by HPTS assay in presence of I-; format: ADME

COCCOCCOCCn1cnc2c(=O)[nH]c(N)nc21
Activity [1]: Not Active | Activity [2]: Not Active | IC50 (MCF7): > 100 µM | IC50 [3]: > 100 µM | IC50 (DU-145): > 100 µM | IC50 (HaCaT): > 100 µM

Nc1nc2c(ncn2C(=O)CCC(=O)OC[C@H]2O[C@H](O[C@H]3O[C@H](CO)[C@@H](O)[C@H](O)[C@H]3O)[C@H](O)[C@@H](O)[C@@H]2O)c(=O)[nH]1
Activity [1]: Active | Activity [2]: Active | Activity [4]: Active | Activity [5]: Active | Activity [6]: Active | Activity [7]: Active | Activity [8]: Active | Activity [9]: Active | Activity [10]: Active | IC50 (MCF7): 1 µM | IC50 [3]: 5 µM | IC50 (DU-145): 25 µM | IC50 (HaCaT): 80 µM

CCCCCCCCCCCCCC(=O)O[C@@H]1[C@H](OC(=O)CCCCCCCCCCCCC)[C@@H](COC(=O)CCC(=O)OC[C@H]2O[C@H](O[C@H]3O[C@H](CO)[C@@H](O)[C@H](O)[C@H]3O)[C@H](O)[C@@H](O)[C@@H]2O)O[C@H]1n1cnc2c(=O)[nH]c(N)nc21
IC50 [3]: 17 µM
